PubChem BioAssay (NCI)
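1) Cells in 96-well plates. 2) Compound, 48 h, 5 concentrations. 3) Linear interpolation between surrounding doses. 4) Unreached endpoint = highest concentration. GI50 is the concentration that inhibits growth by half. TGI: total growth inhibition.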

How the values were obtained:
Assay in all cases: inhibition of tumour cell growth, NCI panel, 48 h
[1] = test system: NCI-H226 lung
[2] = test system: HCC-2998 colon
[3] = test system: UACC-257 melanoma
[4] = test system: EKVX NSCLC
[5] = test system: RPMI-8226 leukemia
[6] = test system: OVCAR-8 ovarian
[7] = test system: SF-539 CNS
[8] = test system: NCI-H522 lung
[9] = test system: MDA-MB-435
[10] = test system: SK-MEL-28 melanoma
[11] = test system: K-562 leukemia
[12] = test system: SF-268 CNS
[13] = test system: A498 renal
[14] = test system: SN12C renal
[15] = test system: MALME-3M melanoma
[16] = test system: SR leukemia
[17] = test system: SK-MEL-5 melanoma
[18] = test system: COLO 205 colon
[19] = test system: HS 578T breast
[20] = test system: NCI-H460 lung
[21] = test system: HCT-15 colon
[22] = test system: MCF7 breast
[23] = test system: BT-549 breast
[24] = test system: SK-MEL-2 melanoma
[25] = test system: NCI-H23 lung
[26] = test system: RXF 393 renal
[27] = test system: SNB-19 CNS
[28] = test system: HL-60(TB) leukemia
[29] = test system: DU-145 prostate
[30] = test system: SW-620 colon
[31] = test system: OVCAR-3 ovarian
[32] = test system: HCT-116 colon
[33] = test system: SNB-75 CNS
[34] = test system: 786-0 renal
[35] = test system: SF-295 CNS
[36] = test system: TK-10 renal
[37] = test system: HOP-92 NSCLC
[38] = test system: CAKI-1 renal
[39] = test system: MOLT-4 leukemia
[40] = test system: LOX IMVI melanoma
[41] = test system: CCRF-CEM leukemia
[42] = test system: ACHN renal
[43] = test system: IGROV1 ovarian
[44] = test system: T-47D breast
[45] = test system: OVCAR-4 ovarian
[46] = test system: NCI/ADR-RES ovarian
[47] = test system: MDA-MB-231 breast
[48] = test system: U251 CNS
[49] = test system: M14 melanoma
[50] = test system: HOP-62 NSCLC
[51] = test system: SK-OV-3 ovarian
[52] = test system: HT29 colon
[53] = test system: KM12 colon
[54] = test system: PC-3 prostate
[55] = test system: UO-31 renal
[56] = test system: UACC-62 melanoma
[57] = test system: OVCAR-5 ovarian
[58] = test system: A549 NSCLC

With `OCc1ccc2c(c1)CC1(C2)Cc2cc3c(cc2C1O)CCC3` (centres undefined) the TGI [1] was 28.9 µM, the TGI [2] was > 45.3 µM and the TGI [3] was 12.6 µM. For the same compound, the TGI [4] was 40.1 µM, the TGI [5] was 15.8 µM and the TGI [6] was 30.9 µM. It also gave a TGI [7] of 14.9 µM, a TGI [8] of 10 µM and a TGI [9] of 2.99 µM. The TGI [10] was 21.3 µM, the TGI [11] was > 37.6 µM and the TGI [12] was > 72.7 µM. For the same compound, the TGI [13] was 27.7 µM, the TGI [14] was 23.8 µM and the TGI [15] was 19.2 µM. The TGI [16] was > 21.7 µM, the TGI [17] was 12 µM and the TGI [18] was 10.3 µM. For the same compound, the TGI [19] was 11.4 µM, the TGI [20] was 17.1 µM and the TGI [21] was > 44.2 µM. It also gave a TGI [22] of 17.6 µM, a TGI [23] of 16 µM and a TGI [24] of 12.7 µM. The TGI [25] was 25.7 µM, the TGI [26] was 18.4 µM and the TGI [27] was > 100 µM. For the same compound, the TGI [28] was > 23.4 µM, the TGI [29] was 67.1 µM and the TGI [30] was 24 µM. For the same compound, the TGI [31] was > 50.9 µM, the TGI [32] was 15.4 µM and the TGI [33] was 16.8 µM. It also gave a TGI [34] of 45.6 µM, a TGI [35] of 12.4 µM and a TGI [36] of 67.1 µM. It also gave a TGI [37] of 34.1 µM, a TGI [38] of 27 µM and a TGI [39] of 21.1 µM. The TGI [40] was 19.4 µM, the TGI [41] was > 44.9 µM and the TGI [42] was 41.3 µM. For the same compound, the TGI [43] was 26.8 µM, the TGI [44] was 9.44 µM and the TGI [45] was 36.3 µM. It also gave a TGI [46] of 12.3 µM, a TGI [47] of 13.3 µM and a TGI [48] of 20.6 µM. The TGI [49] was 13 µM, the TGI [50] was 17.7 µM and the TGI [51] was 46.6 µM. The TGI [52] was 17.5 µM, the TGI [53] was 16.5 µM and the TGI [54] was 11.7 µM. The TGI [55] was 24.1 µM, the TGI [56] was 16.2 µM and the TGI [57] was 56.1 µM. The TGI [58] was > 70.7 µM.
`CC(C)(CO)CNC(=O)c1ccc2[nH]c(O)c(N=Nc3ccc(S(N)(=O)=O)cc3)c2c1` was tested, and the GI50 [1] was > 25 µM, the TGI [1] was > 25 µM and the GI50 [2] was > 25 µM. For the same compound, the TGI [2] was > 25 µM, the GI50 [3] was > 25 µM and the TGI [3] was > 25 µM. For the same compound, the GI50 [4] was > 25 µM, the TGI [4] was > 25 µM and the GI50 [5] was > 25 µM. For the same compound, the TGI [5] was > 25 µM, the GI50 [6] was > 25 µM and the TGI [6] was > 25 µM. For the same compound, the GI50 [7] was > 25 µM, the TGI [7] was > 25 µM and the GI50 [8] was > 25 µM. For the same compound, the TGI [8] was > 25 µM, the GI50 [9] was > 25 µM and the TGI [9] was > 25 µM. For the same compound, the GI50 [10] was > 25 µM, the TGI [10] was > 25 µM and the GI50 [11] was > 25 µM. For the same compound, the TGI [11] was > 25 µM, the GI50 [12] was > 25 µM and the TGI [12] was > 25 µM. For the same compound, the GI50 [13] was > 25 µM, the TGI [13] was > 25 µM and the GI50 [14] was > 25 µM. For the same compound, the TGI [14] was > 25 µM, the GI50 [15] was > 25 µM and the TGI [15] was > 25 µM. The GI50 [16] was > 25 µM, the TGI [16] was > 25 µM and the GI50 [17] was > 25 µM. For the same compound, the TGI [17] was > 25 µM, the GI50 [18] was > 25 µM and the TGI [18] was > 25 µM. For the same compound, the GI50 [19] was > 25 µM, the TGI [19] was > 25 µM and the GI50 [20] was > 25 µM. For the same compound, the TGI [20] was > 25 µM, the GI50 [21] was > 25 µM and the TGI [21] was > 25 µM. The GI50 [22] was > 25 µM, the TGI [22] was > 25 µM and the GI50 [23] was > 25 µM. The TGI [23] was > 25 µM, the GI50 [24] was > 25 µM and the TGI [24] was > 25 µM. For the same compound, the GI50 [25] was > 25 µM, the TGI [25] was > 25 µM and the GI50 [26] was > 25 µM. The TGI [26] was > 25 µM, the GI50 [27] was > 25 µM and the TGI [27] was > 25 µM. For the same compound, the GI50 [28] was > 25 µM, the TGI [28] was > 25 µM and the GI50 [29] was > 25 µM. For the same compound, the TGI [29] was > 25 µM, the GI50 [30] was > 25 µM and the TGI [30] was > 25 µM. For the same compound, the GI50 [31] was > 25 µM, the TGI [31] was > 25 µM and the GI50 [32] was > 25 µM. For the same compound, the TGI [32] was > 25 µM, the GI50 [33] was > 25 µM and the TGI [33] was > 25 µM. The GI50 [34] was > 25 µM, the TGI [34] was > 25 µM and the GI50 [35] was > 25 µM. The TGI [35] was > 25 µM, the GI50 [36] was > 25 µM and the TGI [36] was > 25 µM. For the same compound, the GI50 [37] was > 25 µM, the TGI [37] was > 25 µM and the GI50 [38] was > 25 µM. The TGI [38] was > 25 µM, the GI50 [39] was > 25 µM and the TGI [39] was > 25 µM. For the same compound, the GI50 [40] was > 25 µM, the TGI [40] was > 25 µM and the GI50 [41] was > 25 µM. For the same compound, the TGI [41] was > 25 µM, the GI50 [42] was > 25 µM and the TGI [42] was > 25 µM. The GI50 [43] was > 25 µM, the TGI [43] was > 25 µM and the GI50 [44] was > 25 µM. For the same compound, the TGI [44] was > 25 µM, the GI50 [45] was > 25 µM and the TGI [45] was > 25 µM. The GI50 [46] was > 25 µM, the TGI [46] was > 25 µM and the GI50 [47] was > 25 µM. The TGI [47] was > 25 µM, the GI50 [48] was > 25 µM and the TGI [48] was > 25 µM. The GI50 [49] was > 25 µM, the TGI [49] was > 25 µM and the GI50 [50] was > 25 µM. The TGI [50] was > 25 µM, the GI50 [51] was > 25 µM and the TGI [51] was > 25 µM. For the same compound, the GI50 [52] was > 25 µM, the TGI [52] was > 25 µM and the GI50 [53] was > 25 µM. The TGI [53] was > 25 µM, the GI50 [54] was > 25 µM and the TGI [54] was > 25 µM. The GI50 [55] was > 25 µM, the TGI [55] was > 25 µM and the GI50 [56] was > 25 µM. The TGI [56] was > 25 µM, the GI50 [57] was > 25 µM and the TGI [57] was > 25 µM. For the same compound, the GI50 [58] was > 25 µM and the TGI [58] was > 25 µM.
